# Test results: EP3381898A1, “SYMMETRICAL TRIS-ARYL-AMIDE DERIVATIVES AND THEIR USE AS ANTI-HEPARANASE” (priority 2017, dated 2018)
# pIC50: −log10 of the molar value. Read-outs that look alike come from different tables or passages of the source.
# Tests used:
# [1] = biological target: T1, heparanase (Homo sapiens, UniProt Q9Y251); test: AGA*IA assay: heparanase-catalyzed fondaparinux cleavage, colorimetric (WST-1); assay type: biochemical
# T1 sequence (Q9Y251 158-543 limits assumed): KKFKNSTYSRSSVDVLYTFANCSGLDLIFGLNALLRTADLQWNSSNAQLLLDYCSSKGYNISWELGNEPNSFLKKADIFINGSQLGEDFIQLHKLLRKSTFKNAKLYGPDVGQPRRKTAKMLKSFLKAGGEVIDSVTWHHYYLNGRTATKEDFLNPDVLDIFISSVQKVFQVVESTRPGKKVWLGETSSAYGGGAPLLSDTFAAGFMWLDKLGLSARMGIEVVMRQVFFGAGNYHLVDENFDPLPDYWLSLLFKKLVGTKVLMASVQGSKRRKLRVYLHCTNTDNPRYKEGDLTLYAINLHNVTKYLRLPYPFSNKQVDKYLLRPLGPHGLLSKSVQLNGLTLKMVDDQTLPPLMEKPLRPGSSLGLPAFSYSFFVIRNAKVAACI
# T1 sequence (Q9Y251 36-109 limits assumed): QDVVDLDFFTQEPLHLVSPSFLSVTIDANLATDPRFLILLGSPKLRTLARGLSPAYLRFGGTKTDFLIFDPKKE
# [2] = test system: MMP-9; test: Real-Time Quantitative PCR of mRNA gene expression in HT1080 cells; assay type: cell-based, human; conditions: 24 h, 2.5 uM, mean value
# Method: (§1) To evaluate the effect of heparanase inhibitors on the tumor transcription of genes encoding for proangiogenic factors, such as FGF1/2, VEGF, MMP-9, HSPE-1, the relative mRNA levels were analyzed by quantitative Real-Time Quantitative PCR.
# (§2) To perform the assay, HT1080 (human fibrosarcoma) cells were cultured in complete medium containing 10%FCS (fetal calf serum). Cells were plated in 24-well plates and treated at fixed concentration (i.e., highest non-toxic concentration) of test compounds. After 24 h, cells were detached, collected and total RNA extracted by RNeasy Mini Kit (QIAGEN). Following reverse transcription step, FGF1/2, VEGF, MMP-9, HSPE-1 mRNA levels, were quantified by qPCR using the advanced Universal SYBR Green Supermix (Bio Rad) and ABI PRISM 7900HT Thermal Cycler System (Perkin Elmer), according to the manufacturer's instructions. Appropriate no-RT and non-template controls were included in each 96-well PCR reaction, and dissociation analysis was performed at the end of each run to confirm the specificity of the reaction. Relative levels of RNA were calculated using the ddCt method. Standard curve and sample data were run in duplicate. In Table 4 a mean value is reported.
# [3] = test system: FGF-2; test: as above; assay type: cell-based, human; conditions: 24 h, 2.5 uM, mean value
# Method: as §1, §2
# [4] = test system: FGF-1; test: as above; assay type: cell-based, human; conditions: 24 h, 2.5 uM, mean value
# Method: as §1, §2
# [5] = test system: HPSE-1; test: as above; assay type: cell-based, human; conditions: 24 h, 2.5 uM, mean value
# Method: as §1, §2
# [6] = test system: VEGF; test: as above; assay type: cell-based, human; conditions: 24 h, 2.5 uM, mean value
# Method: as §1, §2
# [7] = test system: U2OS (human osteosarcoma); test: SRB Cell Cytotoxicity Assay (cell proliferation, 72h); assay type: cell-based; conditions: 72 h, read-out: Concentration (µM) of test compounds at which the cell growth is inhibited by 50 %. U2OS
# Method: (§3) SRB Cell Cytotoxicity Assay is an assay based upon the quantitative staining of cellular proteins by sulforhodamine B (SRB). This assay can be used for high-throughput drug screening ([…], Nature Protocol. 2006, 1, 112). Sulforhodamine B is an anionic aminoxanthene dye that forms an electrostatic complex with the basic amino acid residues of proteins under moderately acid conditions, which provides a sensitive linear response. […] Inhibition of cell proliferation was then measured by the classical colorimetric SRB Cell Cytotoxicity assay. Absorbance was measured by spectrophotometer at a wavelength of 510 nm and cell proliferation was determined as percent with respect to control cells (cells treated with the vehicle alone). EC50 values were then determined by GraphPad Prism.
# [8] = test system: HT1080 (human fibrosarcoma); test: as above; assay type: cell-based; conditions: HT-1080, 72 h, read-out: Concentration (µM) of test compounds at which the cell growth is inhibited by 50 %. HT1080
# Method: as §3
# [9] = test system: U87MG (human glioblastoma astrocytoma); test: as above; assay type: cell-based; conditions: U-87 MG, 72 h, read-out: Concentration (µM) of test compounds at which the cell growth is inhibited by 50 %. U87MG
# Method: as §3
structure (smiles),measurement,setting,value
"Cn1cc(NC(=O)c2ccc(Oc3ccc(C(=O)Nc4cc(C(=O)Nc5cccc(CC(=O)N[C@@H](Cc6ccccc6)C(=O)O)c5)n(C)c4)cc3)cc2)cc1C(=O)Nc1cccc(CC(=O)N[C@@H](Cc2ccccc2)C(=O)O)c1 [Compound 36e, (2S,2'S)-2,2'-((2,2'-(((4,4'-((4,4'-Oxybis(benzoyl))bis(azanediyl))bis(1-methyl-1H-pyrrole-2,2'-carbonyl))bis(azanediyl))bis(3,1-phenylene))bis(acetyl))bis(azanediyl))bis(3-phenylpropanoic acid)]",pIC50,"[1]; AGA*IA screening, read-out: anti-heparanase activity",> 6.30
same,pIC50,"[1]; Table 1, range activity classes, AGA*IA test on Fondaparinux, read-out: AGAIA assay IC50",6.31 to 7.30
same,pIC50,"[1]; Table 2, classes as in Table 1, read-out: AGA*IA assay",6.31 to 7.30
same,Gene Expression (% mRNA vs. control) MMP-9,[2],~ 50%
same,Gene Expression (% mRNA vs. control) FGF-2,[3],~ 64%
same,Gene Expression (% mRNA vs. control) FGF-1,[4],~ 62%
same,Gene Expression (% mRNA vs. control) HPSE-1,[5],~ 88%
same,Gene Expression (% mRNA vs. control) VEGF,[6],~ 51%
same,EC50,[7],> 2.5 µM
same,EC50,[8],> 2.5 µM
same,EC50,[9],> 2.5 µM
